According to article PMC10987521, “An all-in-one tetrazine reagent for cysteine-selective labeling and bioorthogonal activable prodrug construction” (Nature Communications, 2024):
“Also recorded” adds a separate entry of the source. Where two headings read alike, the source gives them in different places. Values belong to the molecule of their own block, whether it stands above or below them.

Experiments:
B16F10 melanoma tumor = experiment: In vivo anticancer efficacy, subcutaneous B16F10 melanoma tumor model; parameters: species or system BALB/c nude mice; conditions: four i.v. courses, 3.67 μmol·kg^−1 (TCO-P4 36.7 μmol·kg^−1), n = 5
Procedure: Tumor-bearing mice were established by subcutaneously injecting a suspension of 5 × 10^5 B16F10 cells per mouse into the front flank of each nude mouse. When tumor volume reached 50−70 mm^3, the animals were randomly divided into five groups (n = 5). The mice were administered different compounds suspended in PBS via the tail vein every 3 days for a total of four times.
The mice underwent four treatment courses on day 0, day 3, day 6, and day 9. Tumor size and body weight were measured every day. Tumor volume was calculated via the following formula: V = 1/2 × (minor axis) × (major axis)[2].
After 12 days, the mice were sacrificed and dissected to obtain tumor tissues and main organs, including heart, liver, spleen, lung, and kidney. Subsequently, all tissues were fixed in a 4% paraformaldehyde solution, routinely paraffin-embedded and sectioned, and then stained with hematoxylin and eosin, as well as using TdT-mediated dUTP nick-end labeling (TUNEL) for subsequent pathological analysis. TUNEL-positive cells appeared fluorescent green, representing the apoptosis of tumor cells (nuclei were fluorescent blue, stained with DAPI).
13. In vivo anticancer efficacy […]
13.2 Calculation of the tumor growth inhibition values (TGI)
Tumor growth inhibition values (TGI) were calculated using the following formula: TGI (%) = (1 − RTVtreatment/
RTVcontrol)*100. RTV refers to relative tumor volume, representing the ratio of the volume at the end of treatment to the
volume at the beginning of treatment. […]

[1] = type: physicochemical; conditions: for intact (%) under 10 mM GSH: 520 nm HPLC–MS (PyTz UV–Vis)
Procedure: All tetrazine compounds were diluted to a concentration of 50 μM or 2 μM using PBS (10% DMSO, pH 7.4). A stock solution of GSH (400 mM in PBS) was then added to achieve a final concentration of 10 mM. The mixture was homogenized and incubated at 37 °C for 12 h. The stability of the compounds (including all peptide conjugates and PmTz) was assessed by measuring the decrease in peak area at 520 nm (with the initial peak area at 0 min defined as 100%). This measurement was monitored by HPLC–MS. Similarly, the stability of PyTz was determined by monitoring the decrease in peak intensity at 520 nm using UV–Vis. Statistical analysis was performed on data from three replicates to calculate the mean and standard deviation. […]
Response 1: We appreciate your comment. We conducted stability tests on RGD-Dox and RGD-SN-38 in 10 mM GSH at a concentration of 2 μM, which is below the critical micelle concentrations. After incubating at 37 °C for 12 hours, we observed that 95% of RGD-Dox and 85% of RGD-SN-38 remained intact. This stability is slightly less than […]
the observed stability is intrinsic to the peptide-drug conjugates, with a slight enhancement due to micelle […]
concentrations, after 12 hours of incubation at 37 °C (Figure S46). […]
intrinsic to the PDCs, with a slight enhancement by micelle formation.
Details of these experiments have been included in the Supplementary Information (Page S42), as outlined below:
RGD-Dox and RGD-SN-38 were diluted to a concentration of 2 μM using PBS (10% DMSO, pH 7.4). A stock solution of GSH (400 mM in PBS) was then added to achieve a final concentration of 10 mM. The mixture was homogenized and incubated at 37 °C for 12 hours. Stability was assessed by measuring the decrease in peak area at 520 nm (with the initial peak area at 0 min defined as 100%). This measurement was monitored by HPLC–MS. Statistical analysis was performed on data from three replicates to calculate the mean and standard deviation.

B16F10 cells = experiment: Cytotoxicity (CCK8, 48 h) of drugs, PDCs, activable-Drugs and TCO, B16F10; type: cell-based, Mouse; conditions: 200 μM TCO
U87 cells = experiment: Cytotoxicity (CCK8, 48 h) of drugs, PDCs, activable-Drugs and TCO, U87; type: cell-based, Human; conditions: 200 μM TCO
SKOV3 cells = experiment: Cytotoxicity (CCK8, 48 h) of drugs, PDCs, activable-Drugs and TCO, SKOV3; type: cell-based, Human; conditions: 200 μM TCO
LX2 cells = experiment: Cytotoxicity (CCK8, 48 h) of drugs, PDCs, activable-Drugs and TCO, LX2; type: cell-based, Human; conditions: 200 μM TCO
MDA-MB-231 cells = experiment: Cytotoxicity (CCK8, 48 h) of drugs, PDCs, activable-Drugs and TCO, MDA-MB-231; type: cell-based, Human; conditions: 200 μM TCO
HepG2 cells = experiment: Cytotoxicity (CCK8, 48 h) of drugs, PDCs, activable-Drugs and TCO, HepG2; conditions: 200 μM TCO
[2] = 1 h, Data 1, 50 μM, PBS pH 7.4, 10% DMSO, 37 °C
[3] = 1 h, Data 2, 50 μM, PBS pH 7.4, 10% DMSO, 37 °C
[4] = 1 h, Data 3, 50 μM, PBS pH 7.4, 10% DMSO, 37 °C

SMILES: COCCOCCOCCOCCC(=O)NCCC1(O)CC/C=C/CCC1 (racemic) [TCO-P4]
tumor growth / inhibition in words (B16F10 melanoma tumor): did not exhibit significant tumor inhibition; also recorded: rapid tumor growth

intact (%) under 10 mM GSH [1, 2]: 86.4895% | intact (%) under 10 mM GSH [1, 3]: 82.9483% | intact (%) under 10 mM GSH [1, 4]: 87.2017% | intact (%) under 10 mM GSH ([1]; 3 h, Data 1, 50 μM, PBS pH 7.4, 10% DMSO, 37 °C): 75.526% | intact (%) under 10 mM GSH ([1]; 3 h, Data 2, 50 μM, PBS pH 7.4, 10% DMSO, 37 °C): 72.3872% | intact (%) under 10 mM GSH ([1]; 3 h, Data 3, 50 μM, PBS pH 7.4, 10% DMSO, 37 °C): 74.6204% | intact (%) under 10 mM GSH ([1]; 5 h, Data 1, 50 μM, PBS pH 7.4, 10% DMSO, 37 °C): 63.0897% | intact (%) under 10 mM GSH ([1]; 5 h, Data 2, 50 μM, PBS pH 7.4, 10% DMSO, 37 °C): 68.3168% | intact (%) under 10 mM GSH ([1]; 5 h, Data 3, 50 μM, PBS pH 7.4, 10% DMSO, 37 °C): 70.9327% | intact (%) under 10 mM GSH ([1]; 8 h, Data 1, 50 μM, PBS pH 7.4, 10% DMSO, 37 °C): 50.7674% | intact (%) under 10 mM GSH ([1]; 8 h, Data 2, 50 μM, PBS pH 7.4, 10% DMSO, 37 °C): 52.9065% | intact (%) under 10 mM GSH ([1]; 8 h, Data 3, 50 μM, PBS pH 7.4, 10% DMSO, 37 °C): 52.3167% | remained intact with 10 mM GSH ([1]; 12 h, 37 °C, 50 μM, PBS pH 7.4, 10% DMSO, HPLC–MS peak area 520 nm, mean of n = 3): 38% | intact (%) under 10 mM GSH ([1]; 12 h, Data 1, 50 μM, PBS pH 7.4, 10% DMSO, 37 °C): 38.6932% | intact (%) under 10 mM GSH ([1]; 12 h, Data 2, 50 μM, PBS pH 7.4, 10% DMSO, 37 °C): 39.3861% | intact (%) under 10 mM GSH ([1]; 12 h, Data 3, 50 μM, PBS pH 7.4, 10% DMSO, 37 °C): 35.5445%
SMILES: Cc1nnc(-c2ncccn2)nn1 [PmTz, pyrimidine tetrazine, reference compound]

intact (%) under 10 mM GSH ([1]; 0.5 h, Data 1, 50 μM, PBS pH 7.4, 10% DMSO, 37 °C): 53% | intact (%) under 10 mM GSH ([1]; 0.5 h, Data 2, 50 μM, PBS pH 7.4, 10% DMSO, 37 °C): 43.8% | intact (%) under 10 mM GSH ([1]; 0.5 h, Data 3, 50 μM, PBS pH 7.4, 10% DMSO, 37 °C): 45% | intact (%) under 10 mM GSH [1, 2]: 19% | intact (%) under 10 mM GSH [1, 3]: 19.7% | intact (%) under 10 mM GSH [1, 4]: 15.4% | intact (%) under 10 mM GSH ([1]; 1.5 h, Data 1, 50 μM, PBS pH 7.4, 10% DMSO, 37 °C): 1.3% | intact (%) under 10 mM GSH ([1]; 1.5 h, Data 2, 50 μM, PBS pH 7.4, 10% DMSO, 37 °C): 4% | intact (%) under 10 mM GSH ([1]; 1.5 h, Data 3, 50 μM, PBS pH 7.4, 10% DMSO, 37 °C): 2.9% | time to degradation with 10 mM GSH ([1]; pH 7.4): ≤ 3 h
SMILES: c1ccc(-c2nnc(-c3ccccn3)nn2)nc1 [PyTz, reference compound]

SMILES: C1=C/CCCCCC/1 [TCO, trans-cyclooctene]
B16F10 (Cell viability%) (B16F10 cells; Data 1): 97.5688% | B16F10 (Cell viability%) (B16F10 cells; Data 2): 97.508% | B16F10 (Cell viability%) (B16F10 cells; Data 3): 97.9504% | U87 (Cell viability%) (U87 cells; Data 1): 96.2952% | U87 (Cell viability%) (U87 cells; Data 2): 96.092% | U87 (Cell viability%) (U87 cells; Data 3): 96.4775% | SKOV3 (Cell viability%) (SKOV3 cells; Data 1): 93.7367% | SKOV3 (Cell viability%) (SKOV3 cells; Data 2): 92.4982% | SKOV3 (Cell viability%) (SKOV3 cells; Data 3): 93.3583% | LX2 (Cell viability%) (LX2 cells; Data 1): 99.7395% | LX2 (Cell viability%) (LX2 cells; Data 2): 98.5462% | LX2 (Cell viability%) (LX2 cells; Data 3): 97.8594% | MDA-MB-231 (Cell viability%) (MDA-MB-231 cells; Data 1): 96.0832% | MDA-MB-231 (Cell viability%) (MDA-MB-231 cells; Data 2): 97.4309% | MDA-MB-231 (Cell viability%) (MDA-MB-231 cells; Data 3): 97.8186% | HepG2 (Cell viability%) (HepG2 cells; Data 1): 94.3888% | HepG2 (Cell viability%) (HepG2 cells; Data 2): 93.5935% | HepG2 (Cell viability%) (HepG2 cells; Data 3): 92.7384%
